Data on four molecules can be found in paper PMC7717570, “Deciphering the enzymatic target of a new family of antischistosomal agents bearing a quinazoline scaffold using complementary computational tools” (Journal of Enzyme Inhibition and Medicinal Chemistry, 2020).

“And” between values parts separate entries of the source, which are not always exact repeats. Equal values may be shown once. Read-outs that look alike come from different tables or passages of the source.

Data set [1] is described as follows: Microsomal stability, mouse liver microsomes (S9), Phase-II (UGT enzymes). The settings on record: 5 µM. It counts as in vitro ADME. The protocol: (§1) Mouse or human liver microsomes (S9), reduced nicotinamide adenine dinucleotide phosphate (NADPH) generating system solutions and uridine glucuronosyltransferase (UGT) reaction mix (BD Biosciences) were kept at −80 °C. The test compounds and reference compound diclofenac were formulated in DMSO at […]. The assay was carried out based on the BD Biosciences Guidelines for Use (TF000017 Rev1.0) with minor adaptations. The metabolic stability of the compounds was studied through the CYP450 superfamily (Phase-I metabolism) by fortification with NADPH and through UGT enzymes (Phase-II metabolism) by fortification with uridine diphosphate glucuronic acid (UDPGA). For CYP450 and other NADPH dependent enzymes, the compounds were incubated at 5 µM together with 0.5 mg/mL S9 in potassium phosphate buffer in a reaction started by the addition of 1 mM NADP. At defined time points, 20 µL was withdrawn from the reaction mixture and 80 µL cold acetonitrile (ACN) was added to inactivate the enzymes and precipitate the protein. The mixture was vortexed for 30 s and centrifuged at 4 °C for 5 min to collect the supernatant. For UGT enzymes, the compounds were incubated at 5 µM together with 0.5 mg/mL S9 in a reaction started by the addition of 2 mM UDPGA cofactor. The loss of parent compound was determined using liquid chromatography (UPLC) (Waters Aquity^TM) coupled with tandem quadrupole mass spectrometry (MS^2) (Waters Xevo^TM), equipped with an electrospray ionisation (ESI) interface and operated in multiple reaction monitoring (MRM) mode.

The nature of data set [2]: Microsomal stability, mouse liver microsomes (S9), Phase-I (CYP450-NADPH). It counts as in vitro ADME. The settings on record: 5 µM. Here is the method:
as §1

Data set [3] in a line: Microsomal stability, human liver microsomes (S9), Phase-I (CYP450-NADPH). The format is in vitro ADME. The note with it: 5 µM. Here is the method:
as §1
A general note: Microsomes from liver hold many membrane-bound enzymes, among them those of drug oxidation.

Data set [4] can be described thus: Microsomal stability, human liver microsomes (S9), Phase-II (UGT enzymes). It counts as in vitro ADME. The settings on record: 5 µM. Here is the method:
as §1

The subject of data set [5] is Schistosoma mansoni mature worms. Briefly: In vitro S. mansoni worm killing. Set-up: key to Worm killing (male worms) / Worm killing (female worms): % worm mortality = dead worms / total worms × 100. The settings on record: for Worm killing (female worms) / Worm killing (male worms): day 5. The protocol: The percentage reduction of worm or egg burden in each treated group was calculated. […] Results are expressed as mean ± SEM. A two-tailed, unpaired Student’s t-test was used to detect the significance of difference between the means of different groups. […] Stock solutions of 5 mM PZQ and the quinazoline derivatives 2–13 were prepared in DMSO. Concentrations of 100 µM, 50 µM, 25 µM, 10 µM and 5 µM were freshly prepared on the day of experiment in RPMI-1640 medium. All compounds were initially tested at 100 and 50 µM; those showing worm killing were further tested at 25, 10 and 5 µM. Worms were obtained from SBSC of TBRI. Six to eight worms were placed in 12-well tissue culture plates and fresh RPMI-1640 medium (supplemented with glutamine, 20% newborn calf serum and streptomycin, penicillin, and gentamicin), containing the indicated concentration of the test compound was added[20]^,[21]. Worms were incubated overnight in a CO2 incubator at 37 °C. On the 2nd day, worms were examined by microscopy, washed three times with normal saline, fresh medium was added and the incubation was continued. On the 3rd day, worm motility was observed and on the 4th day, medium was changed again. On day 5 (end of the observation period), worms were microscopically examined for their motility and appearance. Each concentration was tested in duplicate, and the final recording of percent worm mortality was determined as the number of dead worms [contracted and opaque] divided by the total number of worms × 100. Negative controls used medium without additions or medium with 2% DMSO; positive control media containing identical concentrations of PZQ were tested in parallel.

For data set [6], the system named is Schistosoma mansoni worm couples. Put plainly: S. mansoni ovipositing capacity and coupling. The protocol: Stock solutions of 5 mM PZQ and the quinazoline derivatives 2–13 were prepared in DMSO. Concentrations of 100 µM, 50 µM, 25 µM, 10 µM and 5 µM were freshly prepared on the day of experiment in RPMI-1640 medium. All compounds were initially tested at 100 and 50 µM; those showing worm killing were further tested at 25, 10 and 5 µM. 12-well tissue culture plates were used, each well containing 6–8 worms with at least one worm couple. Worms were incubated overnight in a CO2 incubator at 37 °C. Each concentration was tested in duplicate wells. On day 4, eggs were counted and discarded and the medium was changed. On day 5 (end of observation period) newly deposited eggs were counted. The final egg number is the total count of days 4 and 5 for each concentration tested and the final recording of the percentage of egg reduction was determined as [the total number of eggs on days 4 and 5 of control – the total number of eggs on days 4 and 5 of treated]/the total number of eggs on days 4 and 5 of control × 100.

Setting [7] is: Schistosoma mansoni, 120 h, 50 µM, day 5, initial test (Table 2), read-out: Worm killing (% of total).
Where [8] appears, read: Schistosoma mansoni, 120 h, 100 µM, day 5, initial test (Table 2), read-out: Worm killing (% of total).
Where [9] appears, read: 50 µM, dose-titration (Table 3).
[10] abbreviates: 100 µM, dose-titration (Table 3).
The mark [11] stands for this setting: Schistosoma mansoni, 120 h, 50 µM, initial test (Table 2), read-out: Reduction in number of eggs (%).
Setting [12] is: Schistosoma mansoni, 120 h, 100 µM, initial test (Table 2), read-out: Reduction in number of eggs (%).

Usually EC50 stands for the concentration at which the effect is half-maximal. On to `COc1ccc(Cn2c(=O)c3cc(Cl)ccc3n(Cc3ccc(C(F)(F)F)cc3)c2=O)cc1` [compound 9, 6-Chloro-1-(4-(trifluoromethyl)benzyl)-3-(4-methoxybenzyl)quinazolin-2,4(1H,3H)-dione], for which the “% Parent compound remaining upon incubation” value was 100% in data set [1] (0 h); 101% in data set [1] (0.25 h); 103% in data set [1] (0.5 h); 105% in data set [1] (1 h); 100% in data set [2] (0 h); 91% in data set [2] (0.25 h). Further, the “% Parent compound remaining upon incubation” value in data set [2] (0.5 h) amounted to 51%; in data set [2] (1 h) it was 44%; in data set [3] (0 h) it was 100%; in data set [3] (0.25 h) it was 104%; in data set [3] (0.5 h), 61%; in data set [3] (1 h), 67%. The “% Parent compound remaining upon incubation” value was 100% in data set [4] (0 h), 94% in data set [4] (0.25 h), 95% in data set [4] (0.5 h) and 97% in data set [4] (1 h). Besides, the killing at 5 µM in data set [5] (Schistosoma mansoni, 120 h, 5 µM, day 5, mature (6 weeks old) worms, dose-titration (Table 3), read-out: Worm killing (% of total)) is 0%. Moreover, the killing at 10 µM in data set [5] (Schistosoma mansoni, 120 h, 10 µM, day 5, mature (6 weeks old) worms, dose-titration (Table 3), read-out: Worm killing (% of total)) is 0%. Further, in data set [5] (Schistosoma mansoni, 120 h, 25 µM, day 5, mature (6 weeks old) worms, dose-titration (Table 3), read-out: Worm killing (% of total)), the killing at 25 µM worked out at 0%. Also, the killing at 50 µM in data set [5] (setting [7]) amounted to 29%; in data set [5] (Schistosoma mansoni, 120 h, 50 µM, day 5, mature (6 weeks old) worms, dose-titration (Table 3), read-out: Worm killing (% of total)), 88%. Further, the killing at 100 µM in data set [5] (setting [8]) is 100%; in data set [5] (Schistosoma mansoni, 120 h, 100 µM, day 5, mature (6 weeks old) worms, dose-titration (Table 3), read-out: Worm killing (% of total)), 100%. In addition, the EC50 was 47 µM in data set [5] (Schistosoma mansoni, males and females together, read-out: EC50 (worm killing)); 49 µM in data set [5] (Schistosoma mansoni, read-out: EC50 (worm killing, female worms)); 41 µM in data set [5] (Schistosoma mansoni, read-out: EC50 (worm killing, male worms)). For the same molecule, the “Worm killing (female worms)” value is given as 0 in data set [5] (5 µM); 0 in data set [5] (10 µM); 0 in data set [5] (25 µM); 75 in data set [5] (50 µM); 100 in data set [5] (100 µM). The “Worm killing (male worms)” value worked out at 0 in data set [5] (5 µM); 0 in data set [5] (10 µM); 0 in data set [5] (25 µM); 100 in data set [5] (50 µM); 100 in data set [5] (100 µM). The Uncoupling result in data set [6] (5 µM, dose-titration (Table 3)) was “No”; in data set [6] (10 µM, dose-titration (Table 3)) it was “No”; in data set [6] (25 µM, dose-titration (Table 3)), “Yes”; in data set [6] (setting [9]), “Yes”; in data set [6] (50 µM, initial test (Table 2)), “Yes”; in data set [6] (setting [10]), “Yes”. The Uncoupling result in data set [6] (100 µM, initial test (Table 2)) was “Yes”. The “Reduction in number of eggs (%)” value in data set [6] (setting [9]) and in data set [6] (setting [10]) was 100% each time. The inhibition at 5 µM in data set [6] (Schistosoma mansoni, 120 h, 5 µM, dose-titration (Table 3), read-out: Reduction in number of eggs (%)) came to 67%. Also, the inhibition at 10 µM in data set [6] (Schistosoma mansoni, 120 h, 10 µM, dose-titration (Table 3), read-out: Reduction in number of eggs (%)) turned out to be 73%. Besides, in data set [6] (Schistosoma mansoni, 120 h, 25 µM, dose-titration (Table 3), read-out: Reduction in number of eggs (%)), the inhibition at 25 µM was 100%. Also, in data set [6] (setting [11]), the inhibition at 50 µM was determined as 100%. In addition, the inhibition at 100 µM in data set [6] (setting [12]) turned out to be 100%.
For `O=C(O)Cc1ccccc1Nc1c(Cl)cccc1Cl` [Diclofenac, diclofenac, reference compound], the “% Parent compound remaining upon incubation” value in data set [1] (UGT enzymes, 0 min) is 100%; in data set [1] (UGT enzymes, 15 min), 41% and 34%; in data set [1] (UGT enzymes, 30 min) it was 44% and 32%; in data set [1] (UGT enzymes, 60 min), 34% and 30%; in data set [2] (CYP450-NADPH, 0 min) it was 100%; in data set [2] (CYP450-NADPH, 15 min), 87% and 61%. Also, the “% Parent compound remaining upon incubation” value in data set [2] (CYP450-NADPH, 60 min) was 48% and 27%; in data set [3] (CYP450-NADPH, 0 min) it was 100%; in data set [3] (CYP450-NADPH, 15 min) it was 27%; in data set [3] (CYP450-NADPH, 30 min) it was 5%; in data set [3] (CYP450-NADPH, 60 min) it was 1%; in data set [4] (UGT enzymes, 0 min), 100%. Moreover, the “% Parent compound remaining upon incubation” value in data set [4] (UGT enzymes, 15 min) was found to be 11%; in data set [4] (UGT enzymes, 30 min), 9%; in data set [4] (UGT enzymes, 60 min) it was 9%.
For the molecule `O=c1c2cc(Cl)ccc2n(Cc2ccc(C(F)(F)F)cc2)c(=O)n1Cc1ccc(F)cc1` [compound 8, 6-Chloro-3-(4-fluorobenzyl)-1-(4-(trifluoromethyl)benzyl)quinazolin-2,4(1H,3H)-dione], the killing at 50 µM in data set [5] (setting [7]) came out at 0%. Further, in data set [5] (setting [8]), the killing at 100 µM amounted to 100%. For the same molecule, the Uncoupling entry in data set [6] (50 µM, initial test (Table 2)) is recorded as “Yes”; in data set [6] (100 µM, initial test (Table 2)), “Yes”. Also, in data set [6] (setting [11]), the inhibition at 50 µM was 100%. Besides, the inhibition at 100 µM in data set [6] (setting [12]) amounted to 100%.
`COc1ccc(Cn2c(=O)c3ccc(Br)cc3n(Cc3ccc(C(F)(F)F)cc3)c2=O)cc1` [compound 7, 7-Bromo-1-(4-(trifluoromethyl)benzyl)-3-(4-methoxybenzyl)quinazolin-2,4(1H,3H)-dione]: the killing at 50 µM in data set [5] (setting [7]) was 0%. For the same molecule, in data set [5] (setting [8]), the killing at 100 µM amounted to 0%. Moreover, the Uncoupling result in data set [6] (50 µM, initial test (Table 2)) is “No”; in data set [6] (100 µM, initial test (Table 2)) it was “No”. The inhibition at 50 µM in data set [6] (setting [11]) turned out to be 35%. For the same molecule, the inhibition at 100 µM in data set [6] (setting [12]) is 50%.
